Laboratory results taken from article PMC6271077, “Synthesis, Anticancer and Antibacterial Activity of Salinomycin N-Benzyl Amides” (Molecules, 2014).
≈ marks a conversion by molar mass, not a printed value. Like-named read-outs stand apart in the source and are kept apart here.

Columns and labels:
LoVo/dx = test: Antiproliferative SRB assay, LoVo/dx; format: cell-based, human; conditions: for IC50: Homo sapiens, LoVo/DX, 72 h, read-out: IC50 LoVo/dx; for IR LoVo/DX: IR = IC50 LoVo/dx / IC50 LoVo; for SI LoVo/DX: SI = IC50 BALB/3T3 / IC50 LoVo/dx
Text: (§1) Four human cancer cell lines and one normal cell line were used to evaluate anticancer activity of SAL and its N-benzyl amides: human acute promyelocytic leukemia (HL-60) and its vincristine resistant subline (HL-60/vinc), human colon adenocarcinoma cell lines sensitive (LoVo) and resistant to doxorubicin (LoVo/dx) as well as also normal murine embryonic fibroblast cell line (BALB/3T3). The BALB/3T3 cell line was purchased from the American Type Culture Collection (ATCC Rockville, MD, USA), HL-60 cell line from European Type Culture Collection by courtesy of Professor Spik and Dr Mazurier (Laboratory of Biological Chemistry USTL, Lille, France) and HL-60/vinc, LoVo and LoVo/dx by courtesy of Prof. E. Borowski (Technical University of Gdańsk, Gdańsk, Poland). All the cell lines are maintained in the Institute of Immunology and Experimental Therapy (IIET), Wrocław, Poland.
(§2) Human leukemia cells were cultured in ISCOVE medium (IIET, Wroclaw, Polond) containing 10% fetal bovine serum and 2 mM L-glutamine (Sigma Aldrich) and 1 µg/100 mL […] for HL-60/vinc (Sigma Aldrich). Human colon adenocarcinoma cell lines were cultured in mixture of OptiMEM and RPMI 1640 (1:1) medium (IIET) supplemented with 5% fetal bovine serum (Thermo Fisher Scientific, Waltham, MA, USA), 2 mM L-glutamine, 1 mM sodium pyruvate (Sigma Aldrich) and 10 µg/100 mL doxorubicin for LoVo/dx (Sigma Aldrich). Murine embryonic fibroblast cells were cultured in Dulbecco medium (Gibco, Darmstadt, Germany) supplemented with 10% fetal bovine serum (Thermo Fisher Scientific) and 2 mM L-glutamine (Sigma Aldrich). All culture media contained antibiotics: 100 U/mL penicillin (Sigma Aldrich) and 100 µg/mL streptomycin (Polfa-Tarchomin, City, Poland). All cell lines were cultured during entire experiment in humid atmosphere at 37 °C and 5% CO2.
(§3) Twenty four hours before adding the tested compounds all cell lines were seeded in 96-well plates (Sarstedt, Nümbrecht, Germany) in appropriate media with 10^4 cells per well. All cell lines were exposed to each tested agent at four different concentrations from the range 100 to 0.1 µg/mL for 72 h. The cells were also exposed to the reference drugs: cisplatin (Accord, London, UK) and doxorubicin hydrochloride (Fluka, St. Louis, MO, USA). Additionally, all cell lines were exposed to DMSO (the solvent used for tested compounds, Sigma Aldrich) at the concentrations corresponding to those in the tested agent dilutions. For adherent cells sulphorodamine B assay was performed and MTT assay for leukemia cells.
(§4) After 72 h of incubation with tested compounds the cells were fixed in situ by gently adding of 50 µL per well of cold 50% trichloroacetic acid TCA (Avantor Performance Materials, City, Poland) and were incubated at 4 °C for 1 h. Then the wells were washed four times with water and air-dried. Next, 50 µL of 0.2% solution of sulphorodamine B (Sigma Aldrich) in 1% acetic acid (Avantor Performance Materials) were added to each well and plates were incubated at room temperature for 0.5 h. After incubation time, unbound dye was removed by washing plates four times with 1% acetic acid, whereas the stain bound to cells was solubilized with 150 µL of 10 mM Tris base (Sigma Aldrich). Absorbance of each solution was read at Synergy H4 photometer (BioTek Instruments, Winooski, VT, USA) at 540 nm wavelength.
(§5) Results are presented as mean IC50 (concentration of the tested compound that inhibits cell proliferation by 50%) ± standard deviation. IC50 values were calculated in Cheburator 1.0.2, Dmitry Nevozhay software for each experiment. Compounds at each concentration were tested in triplicates in single experiment and each experiment was repeated at least three times independently. The IR was defined as the ratio of IC50 for a given compound calculated for resistant cell line to that measured for its parental drug sensitive cell line (Table 4).

LoVo = test: Antiproliferative SRB assay, LoVo; format: cell-based, human; conditions: for IC50: Homo sapiens, LoVo, 72 h, read-out: IC50 LoVo; for SI LoVo: SI = IC50 BALB/3T3 / IC50 LoVo
Text: as §1, §2, §3, §4, §5

[1] = system: standard and "wild" strains of M. tuberculosis; test: Tuberculostatic activity, all M. tuberculosis strains (overall); format: cell-based; conditions: Mycobacterium tuberculosis, H37RV, read-out: MIC (over M. tuberculosis strains)
[2] = system: M. tuberculosis standard H37Rv strain; test: Tuberculostatic activity, test-tube dilution; format: cell-based; conditions: Mycobacterium tuberculosis, read-out: MIC M. tuberculosis Standard H37Rv Strain
HL-60/vinc = test: Antiproliferative MTT assay, HL-60/vinc; format: cell-based, human; conditions: for IC50: Homo sapiens, HL60/vinc, 72 h, read-out: IC50 HL-60/vinc; for IR HL-60/vinc: IR = IC50 HL-60/vinc / IC50 HL-60; for SI HL-60/vinc: SI = IC50 BALB/3T3 / IC50 HL-60/vinc
Text: as §1, §2, §3
(§6) Proliferation inhibition of leukemia cells by tested compounds was measured by means of MTT assay. Thus, 20 µL of 3-(4,5-dimethylthiazol-2-yl)-2,5-diphenyl tetrazolium bromide solution (Sigma Aldrich) were added to each well and plates were left in cell incubator for 4 h to allow the cells to metabolize yellow MTT to blue formazan. Then, the lysing mixture consisting of 225 mL dimethylformamide, 67.5 g sodium dodecyl sulfate (both from Sigma Aldrich) and 275 mL of distilled water was added in 80 µL volume per well. Plates were incubated for 24 h for the formazan crystals to be released from cells, dissolved and then absorbance of each well was read at Synergy H4 photometer (BioTek Instruments) at 570 nm wavelength.
as §5

[3] = system: M. tuberculosis isoniazid-sensitive strain (spec. 192); test: Tuberculostatic activity, test-tube dilution; format: cell-based; conditions: Mycobacterium tuberculosis, read-out: MIC M. tuberculosis Isoniazid-Sensitive Strain
HL-60 = test: Antiproliferative MTT assay, HL-60; format: cell-based, human; conditions: for IC50: Homo sapiens, read-out: IC50 HL-60; for SI HL-60: SI = IC50 BALB/3T3 / IC50 HL-60
Text: as §1, §2, §3, §6, §5

[4] = system: HL-60, HL-60/vinc, LoVo, LoVo/dx; test: Antiproliferative assays, all four cancer cell lines (range given); format: cell-based; conditions: Homo sapiens, read-out: IC50 (range over the cancer cell lines)
Text: as §1, §2, §3, §4
Proliferation inhibition of leukemia cells by tested compounds was measured by means of MTT assay. […]

[5] = HL-60, 72 h, MTT, mean ± SD, NA: not active in concentrations used (up to 100 µg/mL)

Structure (SMILES) | IC50 (LoVo/dx) [µM] | IR LoVo/DX (LoVo/dx) | SI LoVo/DX (LoVo/dx) | IC50 (LoVo; SRB, mean ± SD) [µM] | SI LoVo (LoVo) | MIC [1] [mg/L] | MIC [2] [mg/L] | IC50 (HL-60/vinc) [µM] | IR HL-60/vinc (HL-60/vinc) | SI HL-60/vinc (HL-60/vinc) | MIC [3] [mg/L] | IC50 (HL-60; [5]) [µM] | SI HL-60 (HL-60) | IC50 ([4]; range over HL-60, HL-60/vinc, LoVo, LoVo/dx) [µM] | IC50 (LoVo) [µM] | IC50 (HL-60; HL-60, 72 h) [µM] | IC50 [4] [µM] | MIC ([2]; Youmans' medium, 37 °C, tested 3.1-100 µg/mL) [mg/L] | MIC ([3]; wild strain spec. 192, Youmans' medium, 37 °C, tested 3.1-100 µg/mL) [mg/L]
CC[C@H](C(=O)NCc1cccc(Br)c1)C1CC[C@H](C)C([C@@H](C)[C@H](O)[C@H](C)C(=O)[C@H](CC)C2O[C@]3(C=C[C@@H](O)C4(CC[C@@](C)(C5CC[C@](O)(CC)[C@H](C)O5)O4)O3)[C@H](C)C[C@@H]2C)O1 (stereo partly shown) [Br-m] | 3.39 ± 0.15 | 0.65 | 2.73 | 5.23 ± 0.22 | 1.77 | > 100 | > 100 | 7.08 ± 1.73 | 2.09 | 1.31 | > 100 | 3.38 ± 1.09 | 2.74 |  |  |  |  |  | 
CC[C@H](C(=O)NCc1ccc(Br)cc1)C1CC[C@H](C)C([C@@H](C)[C@H](O)[C@H](C)C(=O)[C@H](CC)C2O[C@]3(C=C[C@@H](O)C4(CC[C@@](C)(C5CC[C@](O)(CC)[C@H](C)O5)O4)O3)[C@H](C)C[C@@H]2C)O1 (stereo partly shown) [Br-p] | 4.97 ± 2.76 | 0.30 | 1.69 | 16.3 ± 0.96 | 0.52 |  | 50 (≈ 54.4 µM) | 33.5 ± 10.9 | 1.62 | 0.25 | 50 (≈ 54.4 µM) | 20.7 ± 4.66 | 0.41 |  |  |  |  |  | 
CC[C@H](C(=O)NCc1cccc(Cl)c1)C1CC[C@H](C)C([C@@H](C)[C@H](O)[C@H](C)C(=O)[C@H](CC)C2O[C@]3(C=C[C@@H](O)C4(CC[C@@](C)(C5CC[C@](O)(CC)[C@H](C)O5)O4)O3)[C@H](C)C[C@@H]2C)O1 (stereo partly shown) [Cl-m] | 2.96 ± 0.99 | 0.25 | 5.86 | 11.6 ± 5.12 | 1.49 |  | 100 (≈ 114 µM) | 6.59 ± 1.22 | 1.72 | 2.63 | > 100 | 3.83 ± 0.09 | 4.52 |  |  |  |  |  | 
CC[C@H](C(=O)NCc1ccccc1Cl)C1CC[C@H](C)C([C@@H](C)[C@H](O)[C@H](C)C(=O)[C@H](CC)C2O[C@]3(C=C[C@@H](O)C4(CC[C@@](C)(C5CC[C@](O)(CC)[C@H](C)O5)O4)O3)[C@H](C)C[C@@H]2C)O1 (stereo partly shown) [Cl-o] | 2.91 ± 0.22 | 0.76 | 2.06 | 3.85 ± 0.05 | 1.56 |  | 100 (≈ 114 µM) | 3.99 ± 1.47 | 1.25 | 1.50 | 50 (≈ 57.2 µM) | 3.18 ± 0.69 | 1.89 | 2.32 to 6.84 |  |  |  |  | 
CC[C@H](C(=O)NCc1ccc(Cl)cc1)C1CC[C@H](C)C([C@@H](C)[C@H](O)[C@H](C)C(=O)[C@H](CC)C2O[C@]3(C=C[C@@H](O)C4(CC[C@@](C)(C5CC[C@](O)(CC)[C@H](C)O5)O4)O3)[C@H](C)C[C@@H]2C)O1 (stereo partly shown) [Cl-p, p-chlorobenzyl amide of salinomycin] | 16.6 ± 4.81 | 0.86 | 0.46 | 19.3 ± 4.03 | 0.40 |  | 100 (≈ 114 µM) | 46.8 ± 12.5 | 1.29 | 0.16 | 100 (≈ 114 µM) | 36.2 ± 3.03 | 0.21 |  |  |  |  |  | 
CCC(C(=O)NCc1cccc(F)c1)C1CCC(C)C(C(C)C(O)C(C)C(=O)C(CC)C2OC3(C=CC(O)C4(CCC(C)(C5CCC(O)(CC)C(C)O5)O4)O3)C(C)CC2C)O1 (stereo not shown) [F-m] | 3.91 ± 2.1 | 0.29 | 1.65 |  | 0.48 |  | 100 (≈ 117 µM) |  |  |  | > 100 |  | 0.10 |  | 13.5 ± 0.28 | 65 ± 35.3 |  |  | 
CCC(C(=O)NCc1ccccc1F)C1CCC(C)C(C(C)C(O)C(C)C(=O)C(CC)C2OC3(C=CC(O)C4(CCC(C)(C5CCC(O)(CC)C(C)O5)O4)O3)C(C)CC2C)O1 (stereo not shown) [F-o] | 2.32 ± 0.69 | 0.66 | 2.57 |  | 1.71 |  | 100 (≈ 117 µM) | 4.44 ± 1.73 | 1.22 | 1.34 | 50 (≈ 58.3 µM) |  | 1.64 |  | 3.49 ± 0.59 | 3.63 ± 0.14 | 2.32 to 6.84 |  | 
NNC(=O)c1ccncc1 [Isoniazid, isoniazid, reference compound] |  |  |  |  |  | 3.1 to 6.25 (≈ 22.6 to 45.6 µM) |  |  |  |  |  |  |  |  |  |  |  | < 3.1 | < 3.1
CC[C@H](C(=O)NCc1cccc([N+](=O)[O-])c1)C1CC[C@H](C)C([C@@H](C)[C@H](O)[C@H](C)C(=O)[C@H](CC)C2O[C@]3(C=C[C@@H](O)C4(CC[C@@](C)(C5CC[C@](O)(CC)[C@H](C)O5)O4)O3)[C@H](C)C[C@@H]2C)O1 (stereo partly shown) [NO2-m] | 3.26 ± 0.84 | 0.20 | 7.64 | 16.1 ± 1.61 | 1.54 |  | 100 (≈ 113 µM) | 24.6 ± 8 | 2.80 | 1.01 | 100 (≈ 113 µM) | 8.78 ± 1.73 | 2.84 |  |  |  |  |  | 
CCC(C(=O)NCc1ccccc1[N+](=O)[O-])C1CCC(C)C(C(C)C(O)C(C)C(=O)C(CC)C2OC3(C=CC(O)C4(CCC(C)(C5CCC(O)(CC)C(C)O5)O4)O3)C(C)CC2C)O1 (stereo not shown) [NO2-o] | 2.45 ± 0.26 | 0.64 | 3.90 |  | 2.51 |  | 50 (≈ 56.5 µM) | 6.84 ± 2.04 | 1.97 | 1.40 | 50 (≈ 56.5 µM) |  | 2.75 |  | 3.81 ± 0.18 | 3.47 ± 0.44 | 2.32 to 6.84 |  | 
